Experimental data published in patent US20100099561A1, “HETEROBICYCLIC ALKYLTHIO-BRIDGED ISOXAZOLINES” (E.I. DU PONT DE NEMOURS AND COMPANY, priority 2008, published 2010).

What was measured:
Format in all cases: in vivo
Settings in all cases: 21 days, scale 0 to 100
kochia (Kochia scoparia) = assay: Test C preemergence, kochia
Text: (§1) Seeds of plant species selected from annual bluegrass (Poa annua), blackgrass (Alopecurus myosuroides), canarygrass (Phalaris minor), gallium, (catchweed bedstraw, Galium aparine), chickweed (Stellaria media), downy bromegrass (Bromus tectorum), field poppy (Papaver rhoeas), field violet (Viola arvensis), green foxtail (Setaria viridis), deadnettle (henbit deadnettle, Lamium amplexicaule), Italian ryegrass (Lolium multiflorum), kochia (Kochia scoparia), lambsquarters (Chenopodium album), oilseed rape (Brassica napus), pigweed (Amaranthus retroflexus), Russian thistle (Salsola kali), spring barley (Hordeum vulgare), spring wheat (Triticum aestivum), wild buckwheat (Polygonum convolvulus), wild mustard (Sinapis arvensis), wild oat (Avena fatua), wild radish (Raphanus raphanistrum), windgrass (Apera spica-venti), winter barley (Hordeum vulgare), and winter wheat (Triticum aestivum) were planted and treated preemergence with test chemicals formulated in a non-phytotoxic solvent mixture which included a surfactant.
(§2) Treated plants and controls were maintained in a controlled growth environment for 21 days after which time all species were compared to controls and visually evaluated. Plant response ratings, summarized in Table C, are based on a scale of 0 to 100 where 0 is no effect and 100 is complete control. A dash (-) response means no test result.

[1] = tested on: chickweed (Stellaria media); assay: Test C preemergence, chickweed
Text: as §1, §2

[2] = tested on: green foxtail (Setaria viridis); assay: Test C preemergence, green foxtail
Text: as §1, §2

[3] = tested on: winter barley (Hordeum vulgare); assay: Test C preemergence, winter barley
Text: as §1, §2

wild oat (Avena fatua) = assay: Test C preemergence, wild oat
Text: as §1, §2

[4] = tested on: Italian ryegrass (Lolium multiflorum); assay: Test C preemergence, Italian ryegrass
Text: as §1, §2

[5] = tested on: gallium, (catchweed bedstraw, Galium aparine); assay: Test C preemergence, galium
Text: as §1, §2

[6] = tested on: pigweed (Amaranthus retroflexus); assay: Test C preemergence, pigweed
Text: as §1, §2

[7] = tested on: wild radish (Raphanus raphanistrum); assay: Test C preemergence, wild radish
Text: as §1, §2

[8] = tested on: wild buckwheat (Polygonum convolvulus); assay: Test C preemergence, wild buckwheat
Text: as §1, §2

[9] = tested on: downy bromegrass (Bromus tectorum); assay: Test C preemergence, downy bromegrass
Text: as §1, §2

[10] = tested on: deadnettle (henbit deadnettle, Lamium amplexicaule); assay: Test C preemergence, deadnettle
Text: as §1, §2

[11] = tested on: annual bluegrass (Poa annua); assay: Test C preemergence, annual bluegrass
Text: as §1, §2

[12] = tested on: oilseed rape (Brassica napus); assay: Test C preemergence, oilseed rape
Text: as §1, §2

[13] = tested on: field violet (Viola arvensis); assay: Test C preemergence, field violet
Text: as §1, §2

[14] = tested on: field poppy (Papaver rhoeas); assay: Test C preemergence, field poppy
Text: as §1, §2

[15] = tested on: wild mustard (Sinapis arvensis); assay: Test C preemergence, wild mustard
Text: as §1, §2

With `CC1(C)CC(S(=O)(=O)Cc2c(C(F)(F)F)nc3n(c2=O)CCS3)=NO1` [Compound 6] the “Plant response rating, Kochia” value (kochia (Kochia scoparia); 31 g ai/ha) was 0, the “Plant response rating, Kochia” value (kochia (Kochia scoparia); 62 g ai/ha) was 0 and the “Plant response rating, Kochia” value (kochia (Kochia scoparia); 125 g ai/ha) was 0. The “Plant response rating, Kochia” value (kochia (Kochia scoparia); 250 g ai/ha) was 0, the “Plant response rating, Chickweed” value ([1]; 31 g ai/ha) was 0 and the “Plant response rating, Chickweed” value ([1]; 62 g ai/ha) was 0. For the same compound, the “Plant response rating, Chickweed” value ([1]; 125 g ai/ha) was 0, the “Plant response rating, Chickweed” value ([1]; 250 g ai/ha) was 50 and the “Plant response rating, Foxtail, Green” value ([2]; 125 g ai/ha) was 20. The “Plant response rating, Barley, Winter” value ([3]; 31 g ai/ha) was 0, the “Plant response rating, Barley, Winter” value ([3]; 62 g ai/ha) was 0 and the “Plant response rating, Barley, Winter” value ([3]; 125 g ai/ha) was 15. The “Plant response rating, Barley, Winter” value ([3]; 250 g ai/ha) was 20, the “Plant response rating, Oat, Wild” value (wild oat (Avena fatua); 31 g ai/ha) was 20 and the “Plant response rating, Oat, Wild” value (wild oat (Avena fatua); 62 g ai/ha) was 25. The “Plant response rating, Oat, Wild” value (wild oat (Avena fatua); 125 g ai/ha) was 25, the “Plant response rating, Oat, Wild” value (wild oat (Avena fatua); 250 g ai/ha) was 30 and the “Plant response rating, Ryegrass, Italian” value ([4]; 31 g ai/ha) was 0. The “Plant response rating, Ryegrass, Italian” value ([4]; 62 g ai/ha) was 15, the “Plant response rating, Ryegrass, Italian” value ([4]; 125 g ai/ha) was 15 and the “Plant response rating, Ryegrass, Italian” value ([4]; 250 g ai/ha) was 95. For the same compound, the “Plant response rating, Galium” value ([5]; 31 g ai/ha) was 0, the “Plant response rating, Galium” value ([5]; 62 g ai/ha) was 0 and the “Plant response rating, Galium” value ([5]; 125 g ai/ha) was 0. The “Plant response rating, Galium” value ([5]; 250 g ai/ha) was 0, the “Plant response rating, Pigweed” value ([6]; 31 g ai/ha) was 0 and the “Plant response rating, Pigweed” value ([6]; 62 g ai/ha) was 0. For the same compound, the “Plant response rating, Pigweed” value ([6]; 125 g ai/ha) was 0, the “Plant response rating, Pigweed” value ([6]; 250 g ai/ha) was 100 and the “Plant response rating, Radish, Wild” value ([7]; 31 g ai/ha) was 0. For the same compound, the “Plant response rating, Radish, Wild” value ([7]; 62 g ai/ha) was 0, the “Plant response rating, Radish, Wild” value ([7]; 125 g ai/ha) was 0 and the “Plant response rating, Radish, Wild” value ([7]; 250 g ai/ha) was 0. The “Plant response rating, Buckwheat, Wild” value ([8]; 31 g ai/ha) was 0, the “Plant response rating, Buckwheat, Wild” value ([8]; 62 g ai/ha) was 0 and the “Plant response rating, Buckwheat, Wild” value ([8]; 125 g ai/ha) was 0. The “Plant response rating, Buckwheat, Wild” value ([8]; 250 g ai/ha) was 0, the “Plant response rating, Bromegrass, Downy” value ([9]; 31 g ai/ha) was 0 and the “Plant response rating, Bromegrass, Downy” value ([9]; 62 g ai/ha) was 0. The “Plant response rating, Bromegrass, Downy” value ([9]; 125 g ai/ha) was 25, the “Plant response rating, Bromegrass, Downy” value ([9]; 250 g ai/ha) was 35 and the “Plant response rating, Deadnettle” value ([10]; 31 g ai/ha) was 0. For the same compound, the “Plant response rating, Deadnettle” value ([10]; 62 g ai/ha) was 0, the “Plant response rating, Deadnettle” value ([10]; 125 g ai/ha) was 0 and the “Plant response rating, Deadnettle” value ([10]; 250 g ai/ha) was 0. For the same compound, the “Plant response rating, Bluegrass” value ([11]; 31 g ai/ha) was 20, the “Plant response rating, Bluegrass” value ([11]; 62 g ai/ha) was 20 and the “Plant response rating, Bluegrass” value ([11]; 125 g ai/ha) was 20. The “Plant response rating, Bluegrass” value ([11]; 250 g ai/ha) was 90, the “Plant response rating, Oilseed Rape” value ([12]; 31 g ai/ha) was 0 and the “Plant response rating, Oilseed Rape” value ([12]; 62 g ai/ha) was 0. The “Plant response rating, Oilseed Rape” value ([12]; 125 g ai/ha) was 0, the “Plant response rating, Oilseed Rape” value ([12]; 250 g ai/ha) was 0 and the “Plant response rating, Field Violet” value ([13]; 31 g ai/ha) was 0. The “Plant response rating, Field Violet” value ([13]; 62 g ai/ha) was 0, the “Plant response rating, Field Violet” value ([13]; 125 g ai/ha) was 0 and the “Plant response rating, Field Violet” value ([13]; 250 g ai/ha) was 0. The “Plant response rating, Field Poppy” value ([14]; 31 g ai/ha) was 40, the “Plant response rating, Field Poppy” value ([14]; 62 g ai/ha) was 50 and the “Plant response rating, Field Poppy” value ([14]; 125 g ai/ha) was 90. The “Plant response rating, Field Poppy” value ([14]; 250 g ai/ha) was 100, the “Plant response rating, Mustard, Wild” value ([15]; 31 g ai/ha) was 0 and the “Plant response rating, Mustard, Wild” value ([15]; 62 g ai/ha) was 0. For the same compound, the “Plant response rating, Mustard, Wild” value ([15]; 125 g ai/ha) was 0 and the “Plant response rating, Mustard, Wild” value ([15]; 250 g ai/ha) was 0.

`CC1(C)CC(S(=O)(=O)Cc2c(C(F)(F)F)nc3n(c2=O)CCCC3)=NO1` [Compound 8, 3-[[(4,5-dihydro-5,5-dimethyl-3-isoxazolyl)sulfonyl]methyl]-6,7,8,9-tetrahydro-2-(trifluoromethyl)-4H-pyrido[1,2-α]pyrimidin-4-one] was tested, and the “Plant response rating, Kochia” value (kochia (Kochia scoparia); 16 g ai/ha) was 0, the “Plant response rating, Kochia” value (kochia (Kochia scoparia); 31 g ai/ha) was 0 and the “Plant response rating, Kochia” value (kochia (Kochia scoparia); 62 g ai/ha) was 0. The “Plant response rating, Kochia” value (kochia (Kochia scoparia); 125 g ai/ha) was 0, the “Plant response rating, Chickweed” value ([1]; 16 g ai/ha) was 0 and the “Plant response rating, Chickweed” value ([1]; 31 g ai/ha) was 0. The “Plant response rating, Chickweed” value ([1]; 62 g ai/ha) was 0, the “Plant response rating, Chickweed” value ([1]; 125 g ai/ha) was 40 and the “Plant response rating, Foxtail, Green” value ([2]; 16 g ai/ha) was 0. The “Plant response rating, Foxtail, Green” value ([2]; 31 g ai/ha) was 0, the “Plant response rating, Foxtail, Green” value ([2]; 62 g ai/ha) was 15 and the “Plant response rating, Foxtail, Green” value ([2]; 125 g ai/ha) was 60. For the same compound, the “Plant response rating, Barley, Winter” value ([3]; 16 g ai/ha) was 0, the “Plant response rating, Barley, Winter” value ([3]; 31 g ai/ha) was 0 and the “Plant response rating, Barley, Winter” value ([3]; 62 g ai/ha) was 0. For the same compound, the “Plant response rating, Barley, Winter” value ([3]; 125 g ai/ha) was 0, the “Plant response rating, Oat, Wild” value (wild oat (Avena fatua); 16 g ai/ha) was 0 and the “Plant response rating, Oat, Wild” value (wild oat (Avena fatua); 31 g ai/ha) was 0. For the same compound, the “Plant response rating, Oat, Wild” value (wild oat (Avena fatua); 62 g ai/ha) was 0, the “Plant response rating, Oat, Wild” value (wild oat (Avena fatua); 125 g ai/ha) was 0 and the “Plant response rating, Ryegrass, Italian” value ([4]; 16 g ai/ha) was 0. For the same compound, the “Plant response rating, Ryegrass, Italian” value ([4]; 31 g ai/ha) was 0, the “Plant response rating, Ryegrass, Italian” value ([4]; 62 g ai/ha) was 0 and the “Plant response rating, Ryegrass, Italian” value ([4]; 125 g ai/ha) was 0. For the same compound, the “Plant response rating, Galium” value ([5]; 16 g ai/ha) was 0, the “Plant response rating, Galium” value ([5]; 31 g ai/ha) was 0 and the “Plant response rating, Galium” value ([5]; 62 g ai/ha) was 0. The “Plant response rating, Galium” value ([5]; 125 g ai/ha) was 0, the “Plant response rating, Pigweed” value ([6]; 16 g ai/ha) was 0 and the “Plant response rating, Pigweed” value ([6]; 31 g ai/ha) was 0. The “Plant response rating, Pigweed” value ([6]; 62 g ai/ha) was 0, the “Plant response rating, Pigweed” value ([6]; 125 g ai/ha) was 0 and the “Plant response rating, Buckwheat, Wild” value ([8]; 16 g ai/ha) was 0. For the same compound, the “Plant response rating, Buckwheat, Wild” value ([8]; 31 g ai/ha) was 0, the “Plant response rating, Buckwheat, Wild” value ([8]; 62 g ai/ha) was 0 and the “Plant response rating, Bromegrass, Downy” value ([9]; 16 g ai/ha) was 0. For the same compound, the “Plant response rating, Bromegrass, Downy” value ([9]; 31 g ai/ha) was 0, the “Plant response rating, Bromegrass, Downy” value ([9]; 62 g ai/ha) was 0 and the “Plant response rating, Bromegrass, Downy” value ([9]; 125 g ai/ha) was 0. For the same compound, the “Plant response rating, Deadnettle” value ([10]; 16 g ai/ha) was 0, the “Plant response rating, Deadnettle” value ([10]; 31 g ai/ha) was 0 and the “Plant response rating, Deadnettle” value ([10]; 62 g ai/ha) was 0. For the same compound, the “Plant response rating, Deadnettle” value ([10]; 125 g ai/ha) was 0, the “Plant response rating, Bluegrass” value ([11]; 16 g ai/ha) was 0 and the “Plant response rating, Bluegrass” value ([11]; 31 g ai/ha) was 0. The “Plant response rating, Bluegrass” value ([11]; 62 g ai/ha) was 0, the “Plant response rating, Bluegrass” value ([11]; 125 g ai/ha) was 0 and the “Plant response rating, Oilseed Rape” value ([12]; 16 g ai/ha) was 0. The “Plant response rating, Oilseed Rape” value ([12]; 31 g ai/ha) was 0, the “Plant response rating, Oilseed Rape” value ([12]; 62 g ai/ha) was 0 and the “Plant response rating, Oilseed Rape” value ([12]; 125 g ai/ha) was 0. For the same compound, the “Plant response rating, Field Violet” value ([13]; 16 g ai/ha) was 0, the “Plant response rating, Field Violet” value ([13]; 31 g ai/ha) was 0 and the “Plant response rating, Field Violet” value ([13]; 62 g ai/ha) was 0. The “Plant response rating, Field Violet” value ([13]; 125 g ai/ha) was 90, the “Plant response rating, Field Poppy” value ([14]; 16 g ai/ha) was 0 and the “Plant response rating, Field Poppy” value ([14]; 31 g ai/ha) was 0. For the same compound, the “Plant response rating, Field Poppy” value ([14]; 62 g ai/ha) was 50, the “Plant response rating, Field Poppy” value ([14]; 125 g ai/ha) was 75 and the “Plant response rating, Mustard, Wild” value ([15]; 16 g ai/ha) was 0. For the same compound, the “Plant response rating, Mustard, Wild” value ([15]; 31 g ai/ha) was 0, the “Plant response rating, Mustard, Wild” value ([15]; 62 g ai/ha) was 30 and the “Plant response rating, Mustard, Wild” value ([15]; 125 g ai/ha) was 100.
